These results are taken from ChEMBL document CHEMBL3046166, “Synthesis and biological evaluation of some new Thiazolo[3,2-a][1,3,5]triazine derivatives” (2012).

The nature of test [1]: Induction of DNA fragmentation using ethidium bromide staining by agarose gel electrophoresis.
For the next test, the system named is Escherichia coli. Description: Antibacterial activity against Escherichia coli after 24 hr by agar diffusion technique. The test is classed as functional. For orientation: Agar diffusion results depend on both activity and mobility in agar.

Structures are written as SMILES. The source made the active and inactive calls. No cut-off for these calls is given here.

For the molecule `CN(C)/C=c1\sc2n(c1=O)CN(c1ccccc1)CN=2`, the outcome in test [1] was Active. Further, in the test with Escherichia coli, the “diameter of the inhibition zone (DIZ)” value was found to be 26 mm.
The corresponding values for `O=c1/c(=C/c2ccc3c(c2)OCO3)sc2n1CN(c1ccccc1)CN=2` are “Active” and 14 mm.
Turning to `O=c1/c(=C/c2ccc(Cl)cc2)sc2n1CN(c1ccccc1)CN=2`, the outcome in test [1] was Active. The “diameter of the inhibition zone (DIZ)” value in the test with Escherichia coli is recorded as 14 mm.
The corresponding values for `O=c1/c(=C/c2ccc(/C=c3/sc4n(c3=O)CN(c3ccccc3)CN=4)cc2)sc2n1CN(c1ccccc1)CN=2` are “Active” and 14 mm.
For `CC1(C)S[C@@H]2[C@H](NC(=O)[C@H](N)c3ccccc3)C(=O)N2[C@H]1C(=O)O` [AMPICILLIN], in the test with Escherichia coli, the “diameter of the inhibition zone (DIZ)” value came to 21 mm.
For `Cc1ccc(N/N=C2/SC3=NCN(c4ccccc4)CN3C2=O)cc1`, the outcome in test [1] was Active. The “diameter of the inhibition zone (DIZ)” value in the test with Escherichia coli was determined as 13 mm.
Turning to `N=C1NC(=O)/C(=C/c2ccccc2)S1`, the outcome in test [1] was Active. Besides, the “diameter of the inhibition zone (DIZ)” value in the test with Escherichia coli worked out at 15 mm.
The corresponding values for `N=C1NC(=O)CS1` are “Active” and 14 mm.
The corresponding values for `O=C1CSC2=NCN(c3ccccc3)CN12` are “Active” and 26 mm.
The corresponding values for `CSC(=S)C1Sc2nc(=S)sc(=S)n2C1=O` (centres undefined) are “Active” and 14 mm.
